How the values were obtained:
tumor cells = settings: preclinical models of melanoma; cited from earlier work
1205Lu cells = test: LC3 immunoblotting of lysates from cells treated with rapamycin or hydroxychloroquine; format: cell-based, human; settings: 1205Lu cells compared to WM793 cells
Procedure: Melanoma cell lines […] and 1205Lu (as well as other cell lines identified in the appropriate figures) were maintained in RPMI 1640 (Invitrogen) supplemented with 10% fetal bovine serum (Sigma), 50 μg/mL gentamicin, and 25 mmol/L HEPES in the presence of 5% CO2 at 37° C. The 3D spheroid cultures were prepared as previously described^1 and cell death was evaluated using the Live/Dead Assay (Invitrogen). Electron microscopy was performed as previously described^1. Immunoblotting was performed on whole cell lysates as previously described. A commercially available polyclonal antibody against actin (I-19) was used (Santa Cruz). A polyclonal antibody against LC3 that was produced by QCB Biologicals was used. Band densities from Western Blots were quantified using Adobe Photoshop CS4 Extended.
The genetically paired melanoma cell lines, WM793 and 1205Lu, were used for initial secretome comparisons due to the inherent genetic heterogeneity across unrelated melanoma cell lines. The 1205Lu cell line is a subclone derived from the lung metastasis of WM793 in athymic mice, thus minimizing protein expression changes caused by genetic differences^14. To determine autophagic capacity in these paired cell lines, electron microscopy of WM793 and 1205Lu grown in complete medium was used to quantify AVs (FIG. 1A). […]

## CCN(CCO)CCCC(C)Nc1ccnc2cc(Cl)ccc12 (centres unmarked) [hydroxychloroquine]
Tumor cells
  effect on cytotoxic effects of alkylating agents: augment the cytotoxic effects of alkylating agents
1205Lu cells
  LC3II/LC3I ratio: increases
